Patent US20230372364A1, “METHOD OF TREATING GABA MEDIATED DISORDERS” (Eliem Therapeutics (UK) Ltd, priority 2020, published 2023)
Like-named read-outs stand apart in the source and are kept apart here.

Experiments:
[1] = human, cited from earlier work
human subjects = conditions: cited from earlier work
[2] = human, cited from earlier work; remark: listed apart in the source
[3] = system: rodent model of depression; assay: Forced swim test - Depression; type: in vivo; conditions: all doses listed in the cell
[4] = 30 mg, day 7 MAD (MTD), morning dosing

C[C@@]1(O)CC[C@H]2[C@H](CC[C@@H]3[C@@H]2CC[C@]2(C)[C@@H](C(=O)Cn4cc(C#N)cn4)CC[C@@H]32)C1 [Sage-217, zuranolone]
ratio of Cmax/trough on day 7 ([1]; 30 mg daily in the evening in a fed state): 5.88
AUC0-inf [1, 4]: 833.2 ng·h/mL
Cmin [1, 4]: 12.46 ng/mL
Ratio (Cmax/Cmin) [1, 4]: 9.24
MAD MTD ([1]; multiple ascending dose): SAGE-217 30 mg
Any adverse event, (%) (human subjects; 20 mg, n-188): (50.0) %
Diarrhea, (%) (human subjects; 20 mg, n-188): (5.9) %
Dizziness, (%) (human subjects; 20 mg, n-188): (7.4) %
Fatigue, (%) (human subjects; 20 mg, n-188): (1.6) %
Headache, (%) (human subjects; 20 mg, n-188): (11.2) %
Nausea, (%) (human subjects; 20 mg, n-188): (5.3) %
Sedation, (%) (human subjects; 20 mg, n-188): (5.9) %
Somnolence, (%) (human subjects; 20 mg, n-188): (5.9) %
Any adverse event, (%) (human subjects; 30 mg, n-192): (54.2) %
Diarrhea, (%) (human subjects; 30 mg, n-192): (6.3) %
Dizziness, (%) (human subjects; 30 mg, n-192): (5.7) %
Fatigue, (%) (human subjects; 30 mg, n-192): (6.8) %
Headache, (%) (human subjects; 30 mg, n-192): (6.3) %
Nausea, (%) (human subjects; 30 mg, n-192): (3.6) %
Sedation, (%) (human subjects; 30 mg, n-192): (4.7) %
Somnolence, (%) (human subjects; 30 mg, n-192): (6.8) %
Tmax ([2]; 55 mg SAD MTD): 1.24 h
SAD MTD ([2]; single ascending dose): SAGE-217 55 mg SAD MTD
Doses in Forced swim test - Depression, * = significantly efficacious dose [3]: 1 - 3* mg/kg
